Like-named read-outs stand apart in the source and are kept apart here.
Legend:
[1] = system: intraerythrocytic P. falciparum; assay: In vitro parasite proliferation assay (SYBR Safe-based fluorescence); assay type: cell-based, Plasmodium falciparum (3D7 strain); settings: for Antiplasmodial IC50 range, in words: 1 µM pantothenate; for IC50: Plasmodium falciparum, intraerythrocytic stage, 96 h
Method: Culturing of intraerythrocytic stage P. falciparum parasites (3D7 strain) was carried out using a method adapted from Trager and Jensen ([97]) and Allen and Kirk ([98]). Parasites were maintained within human, male or female, erythrocytes (typically Group O+, Rh+, 4% hematocrit) in RPMI-1640 medium (Thermo Fisher Scientific, catalogue number 72400120) supplemented with 25 mM HEPES, 11 mM glucose, 200 μM hypoxanthine, 24 μg/mL gentamicin and 6 g/L Albumax II on a horizontally rotating shaking incubator (New Brunswick Innova 42/[…]) at 37°C under an atmosphere of 96% nitrogen, 3% carbon dioxide, and 1% oxygen. To evaluate the effect of each compound on the in vitro proliferation of P. falciparum parasites, a SYBR Safe-based fluorescence assay was used as previously described ([32]). All pantothenamide-mimics tested were initially dissolved to a concentration of 200 mM in DMSO. The final DMSO concentration in the assay never exceeded 0.1% (vol/vol). Assays were performed using the same medium used to culture the parasites. […] Assays were set up with synchronous ring-stage P. falciparum-infected erythrocytes in 96-well microtiter plates. Parasites were synchronized using 5% (wt/vol) sorbitol ([100]). […] P. falciparum-infected erythrocytes incubated in the presence of 0.5 μM chloroquine were used as a non-proliferation control, and those incubated in the absence of compounds and chloroquine served as a 100% parasite proliferation control. To minimize “edge effects” ([101], [102]), the outermost rows and columns of the microtiter plates were not used in the proliferation assays and were filled with 200 μL of medium. The plates were then incubated at 37°C for 96 h under a low-oxygen atmosphere. At the end of the incubation, plates were frozen at -80°C to lyse the cells. […] The fluorescence in the non-proliferation control wells was subtracted from the fluorescence readings in the other wells prior to further analysis. Parasite proliferation, calculated as a percentage of the fluorescence measured in the test wells relative to the fluorescence measured in the 100% parasite proliferation control wells, was then plotted against the logarithm of the compound concentration. […] IC50 values (determined from the sigmoidal curves) were averaged from three independent experiments.

[2] = target: PfPanK (Plasmodium falciparum, UniProt Q8IL92+Q8ILP4); assay: [14C]pantothenate phosphorylation assay in P. falciparum lysates (Somogyi reagent); assay type: biochemical; settings: for inhibition at 2 µM: read-out: Inhibition of pantothenate phosphorylation
Sequence of PfPanK (Q8ILP4 entry or part of it): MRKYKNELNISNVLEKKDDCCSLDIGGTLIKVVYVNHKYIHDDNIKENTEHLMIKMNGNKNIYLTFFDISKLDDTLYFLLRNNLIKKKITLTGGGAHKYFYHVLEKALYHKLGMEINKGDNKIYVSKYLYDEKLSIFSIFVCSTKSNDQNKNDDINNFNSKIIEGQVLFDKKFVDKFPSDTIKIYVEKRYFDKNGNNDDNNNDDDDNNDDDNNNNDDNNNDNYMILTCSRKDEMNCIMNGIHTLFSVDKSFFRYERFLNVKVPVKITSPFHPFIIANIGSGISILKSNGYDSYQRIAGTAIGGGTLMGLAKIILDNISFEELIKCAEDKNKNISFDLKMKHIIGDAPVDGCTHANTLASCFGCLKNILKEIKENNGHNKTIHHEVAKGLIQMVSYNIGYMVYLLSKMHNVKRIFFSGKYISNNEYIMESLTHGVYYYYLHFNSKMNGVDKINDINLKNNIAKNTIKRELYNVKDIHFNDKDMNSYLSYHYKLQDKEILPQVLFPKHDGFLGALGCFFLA
Sequence of PfPanK (Q8IL92 entry or part of it): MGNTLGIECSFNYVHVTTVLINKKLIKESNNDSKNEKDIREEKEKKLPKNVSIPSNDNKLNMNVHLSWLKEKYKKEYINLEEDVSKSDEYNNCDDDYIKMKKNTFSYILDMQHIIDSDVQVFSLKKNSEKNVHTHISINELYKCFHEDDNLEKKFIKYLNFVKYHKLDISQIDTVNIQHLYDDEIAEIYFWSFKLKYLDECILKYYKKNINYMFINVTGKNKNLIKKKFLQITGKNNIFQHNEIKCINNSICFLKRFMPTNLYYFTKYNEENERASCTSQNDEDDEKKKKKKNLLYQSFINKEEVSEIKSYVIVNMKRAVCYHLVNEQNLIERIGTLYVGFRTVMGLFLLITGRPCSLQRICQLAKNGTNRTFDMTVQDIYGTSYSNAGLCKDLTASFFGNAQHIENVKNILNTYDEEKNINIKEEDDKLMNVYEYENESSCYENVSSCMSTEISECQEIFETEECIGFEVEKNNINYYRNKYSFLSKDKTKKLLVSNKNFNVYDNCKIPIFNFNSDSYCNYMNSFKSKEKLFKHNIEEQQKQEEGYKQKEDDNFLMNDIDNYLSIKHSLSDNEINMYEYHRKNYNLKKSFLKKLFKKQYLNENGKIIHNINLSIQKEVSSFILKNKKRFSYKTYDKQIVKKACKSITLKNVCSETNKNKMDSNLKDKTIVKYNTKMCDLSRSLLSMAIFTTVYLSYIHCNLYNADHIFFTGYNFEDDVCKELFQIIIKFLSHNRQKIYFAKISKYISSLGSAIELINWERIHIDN
Method: Parasite lysates were prepared from saponin-isolated mature trophozoite-stage parasites as described by Saliba et al. ([14]), with modifications. Briefly, a culture with predominantly trophozoite stage parasites was thoroughly mixed with saponin (0.05% [wt/vol] final concentration) and centrifuged at 2,000 × g for 8 min at 4°C. The pelleted parasites were then transferred to a 1.5 mL tube and washed three times (16,000 × g, 1 min each time) with cold malaria saline (125 mM NaCl, 5 mM KCl, 25 mM HEPES, 20 mM glucose, 1 mM MgCl2, pH 7.1). Subsequently, washed saponin-isolated parasites were suspended in 1 mL of 10 mM Tris/Cl, pH 7.4, followed by trituration (10 times) through a SafetyGlide injection needle (25-gauge). The lysates were then centrifuged at 16,000 × g for 30 min at 4°C, and the supernatant was transferred to a new tube. The concentration of the lysates was then determined using the Bradford reagent.
Phosphorylation of [^14C]pantothenate was determined using a combination of zinc sulphate (ZnSO4) and barium hydroxide (Ba(OH)2) (Somogyi reagent) as previously described ([78]). In the 125 min time course, each reaction (650 µL) contained a final concentration of 50 mM Tris-Cl (pH 7.4), 5 mM ATP, 5 mM MgCl2, 2 µM (0.1 µCi/mL) [^14C]pantothenate, and 60 µg of total parasite lysate. The compounds were added at their 10× antiplasmodial IC50 values or at various concentrations to generate dose–response curves. Mixtures were incubated at 37°C throughout the experiment, and reactions were initiated by the addition of the lysates. A reaction with identical components to the test reactions but lacking the parasite lysate was prepared to serve as a no-phosphorylation negative control, and a reaction with DMSO vehicle control (0.2% vol/vol) served as a positive control. At pre-determined time points, 50 µL of the reaction mixture was transferred in triplicate to wells of a 96-well filter plate with 0.2 µm hydrophilic polyvinylidene fluoride (PVDF) membrane filter (Corning), which had been pre-loaded with 50 µL of 150 mM Ba(OH)2. The reaction mixtures were thoroughly mixed with the Ba(OH)2 in the wells to precipitate the enzyme and terminate the phosphorylation reaction. After all reactions had been terminated, phosphorylated compounds in each well were precipitated by the addition of 50 µL of 150 mM ZnSO4 to generate the Somogyi reagent. The plate was then washed twice with deionized H2O and once with 95% (vol/vol) ethanol using a vacuum manifold to remove the non-phosphorylated [^14C]pantothenate and was subsequently dried overnight at 37°C in a non-humidified incubator. The following day, 30 µL of Microscint-O (PerkinElmer) was added to each well, and the plate was sealed on the top and bottom with TopSeal-A Plus sealing film (PerkinElmer). A Packard Microplate Scintillation and Luminescence Counter was used to measure the radioactivity in each well immediately after the plate had been sealed. To determine the total radioactivity in each phosphorylation assay, 50 µL of each reaction mixture was added to the wells of an OptiPlate-96 microplate (PerkinElmer) in triplicate and was then thoroughly mixed with 150 µL of Microscint-40 (PerkinElmer), and the radioactivity was measured in the same manner. Phosphorylation of [^14C]pantothenate, calculated as a percentage of the radioactivity measured in the test wells relative to the total radioactivity in the phosphorylation assay, was then plotted against the reaction time. Each data set was analyzed by linear regression, from which the phosphorylation rate of each reaction was then determined and expressed as a percentage of the phosphorylation rate of the DMSO-positive control reaction.

[3] = RPMI-1640 containing 1 µM pantothenate, mean ± SEM of three experiments, read-out: IC50 (µM) against Pf at 1 µM Pan
[4] = RPMI-1640 containing 100 µM pantothenate, read-out: IC50 (µM) against Pf at 100 µM Pan

In the case of `CC(C)(CO)[C@@H](O)C(=O)NCc1csc(-c2ccccc2)n1` [Compound 2e], the “Antiplasmodial IC50 range, in words” value [1] is reported as “sub-micromolar range”, the IC50 [1, 3] is reported as 0.51 ± 0.02 µM and the IC50 [1, 4] is reported as greater than 6.25 µM. The inhibition at 2 µM [2] was roughly 80% and the “Fold by which IC50 at inhibiting pantothenate phosphorylation is higher than Km for pantothenate of PfPanK” value ([2]; relative to reported Km 270 ± 95 nM) was “approximately 2.1 fold”.

With `CC(C)(CO)[C@@H](O)C(=O)NCc1nc(CCc2ccccc2)cs1` [Compound 1e] the “Antiplasmodial IC50 range, in words” value [1] was “sub-micromolar range”, the IC50 [1, 3] was 0.77 ± 0.09 µM and the IC50 [1, 4] was greater than 12.5 µM. For the same compound, the inhibition at 2 µM [2] was greater than 90%.

Work on `CCCCCc1csc(CNC(=O)[C@H](O)C(C)(C)CO)n1` [Compound 1c] yielded an IC50 [1, 3] of 2.3 ± 0.2 µM, an IC50 [1, 4] greater than 25 µM and an inhibition at 2 µM [2] greater than 90%.

Work on `CC(C)(CO)[C@@H](O)C(=O)NCc1cnc(-c2ccccc2)s1` [Compound 3f] yielded an IC50 [1, 3] of 8 ± 0.7 µM, an IC50 [1, 4] greater than 50 µM and an inhibition at 2 µM [2] greater than 90%.

With `CC(C)(CO)[C@@H](O)C(=O)NCc1csc(Cc2ccccc2)n1` [Compound 2c] the IC50 [1, 3] was 2.4 ± 0.2 µM, the IC50 [1, 4] was greater than 25 µM and the inhibition at 2 µM [2] was greater than 90%.

In the case of `CCCCc1csc(CNC(=O)[C@H](O)C(C)(C)CO)n1` [Compound 1a], the “Antiplasmodial IC50 range, in words” value [1] is reported as “sub-micromolar range”, the IC50 [1, 3] is reported as 0.77 ± 0.1 µM and the IC50 [1, 4] is reported as greater than 6.25 µM. For the same compound, the inhibition at 2 µM [2] was greater than 90%.

Reference: publication PMC12406685, “Thiazole substitution of a labile amide bond—a new option toward antiplasmodial pantothenamide-mimics” (Antimicrobial Agents and Chemotherapy, 2025)
